{
  "source": "patent US20110293745A1",
  "about": "“AURORA KINASE INHIBITORS” (SUNESIS PHARMACEUTICALS, INC., priority 2008, published 2011)",
  "key": {"Flt4": {"target": "T1, Flt4 (Homo sapiens, UniProt P35916)", "T1 construct": "purchased Upstate Biotechnology, Dundee, UK", "T1 sequence (P35916 25-1363)": "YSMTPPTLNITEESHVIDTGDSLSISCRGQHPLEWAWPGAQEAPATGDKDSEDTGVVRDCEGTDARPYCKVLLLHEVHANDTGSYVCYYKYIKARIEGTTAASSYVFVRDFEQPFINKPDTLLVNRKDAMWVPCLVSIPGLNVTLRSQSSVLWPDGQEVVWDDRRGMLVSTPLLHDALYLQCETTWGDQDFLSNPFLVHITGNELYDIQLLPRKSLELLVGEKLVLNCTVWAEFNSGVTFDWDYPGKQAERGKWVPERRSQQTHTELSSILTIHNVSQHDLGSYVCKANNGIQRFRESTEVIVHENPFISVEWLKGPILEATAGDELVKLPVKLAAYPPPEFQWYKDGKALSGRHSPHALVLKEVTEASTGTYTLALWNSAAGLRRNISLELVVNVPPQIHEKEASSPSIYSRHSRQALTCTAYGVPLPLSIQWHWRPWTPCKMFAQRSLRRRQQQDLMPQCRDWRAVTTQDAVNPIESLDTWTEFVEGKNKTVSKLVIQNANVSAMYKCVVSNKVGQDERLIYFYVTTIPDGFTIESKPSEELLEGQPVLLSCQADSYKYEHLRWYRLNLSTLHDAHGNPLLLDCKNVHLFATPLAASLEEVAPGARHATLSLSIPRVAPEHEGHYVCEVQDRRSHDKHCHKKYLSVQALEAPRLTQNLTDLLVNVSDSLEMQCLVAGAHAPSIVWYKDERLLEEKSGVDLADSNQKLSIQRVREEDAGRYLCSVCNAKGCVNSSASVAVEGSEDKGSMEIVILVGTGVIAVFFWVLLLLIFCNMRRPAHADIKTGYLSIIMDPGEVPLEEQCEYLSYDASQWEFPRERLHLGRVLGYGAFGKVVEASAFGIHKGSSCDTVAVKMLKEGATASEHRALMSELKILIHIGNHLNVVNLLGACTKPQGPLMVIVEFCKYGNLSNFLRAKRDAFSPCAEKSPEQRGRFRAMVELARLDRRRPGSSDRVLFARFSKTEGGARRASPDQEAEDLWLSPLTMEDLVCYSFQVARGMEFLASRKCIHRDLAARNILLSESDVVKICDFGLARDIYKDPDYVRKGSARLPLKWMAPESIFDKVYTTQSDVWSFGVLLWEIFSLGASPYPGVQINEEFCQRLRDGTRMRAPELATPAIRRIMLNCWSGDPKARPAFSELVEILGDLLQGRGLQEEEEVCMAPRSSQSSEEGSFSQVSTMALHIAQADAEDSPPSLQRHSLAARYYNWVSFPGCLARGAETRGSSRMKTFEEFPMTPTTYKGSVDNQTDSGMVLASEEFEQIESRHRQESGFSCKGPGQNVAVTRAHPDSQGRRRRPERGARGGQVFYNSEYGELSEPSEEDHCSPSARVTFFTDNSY", "experiment": "Radiometric kinase assay (Upstate panel)", "type": "biochemical"}, "HT-29": {"tested_on": "HT-29", "experiment": "cells", "settings": "Homo sapiens, HT-29, 16 h, read-out: Cell Cycle EC50"}, "[1]": {"tested_on": "HCT 116 colon cancer xenograft", "experiment": "In vivo efficacy, mouse xenograft"}, "HCT 116 cells [2]": {"tested_on": "HCT 116 cells", "experiment": "Fluorescent imaging (DNA and tubulin)", "type": "cell-based, human", "settings": "16 nM, 72 hr", "experimental": "Cells were then fixed with 4% paraformaldehyde for 20 min at room temperature, washed with 1×PBS three times, permeabilized with 0.1% Triton® X-100 nonionic surfactant for 5 min at room temperature, washed with 1×PBS twice, blocked with 10% fetal bovine serum (FBS) in PBS for 2 hr at room temperature. The cells were incubated in a diluted alpha-tubulin primary antibody solution in 10% FBS for 2 days at 4° C., and stained with DAPI (DNA/.blue) and with a diluted FITC-labeled secondary antibody (tubulin/green) solutions in 10% FBS for 1 hr at room temperature away from light. Cells were then washed in 1×PBS and the coverslips were mounted on slides and analyzed with a […]2 fluorescence microscope with a 63× oil immersion objective. Images were captured on a […] camera and analyzed using Image-Pro software. For both images captured, the same objective was used."}, "HCT 116 cells [3]": {"tested_on": "HCT 116 cells", "experiment": "Flow cytometry, DNA content (propidium iodide)", "type": "cell-based, human", "settings": "36 nM, 16 hours", "experimental": "HCT 116 cells were seeded at 10,000 cells per well in 12-well plates and cells were incubated 24 hr at 37° C. […] After 16 hrs, media was aspirated and placed in a labeled collection tube, cells were trypsinized with 100 μL trypsin for 5 min at room temperature, quenched with fresh media, and placed in the collection tube with their appropriate media aspirate. Cells were spun at 2000 RPM for 5 min, supernatant was aspirated, and cells were re-suspended in 50 μl, 1× phosphate buffered saline (PBS) and 200 μL 100% methanol. Samples were then placed at −20° C. Cells fixed in methanol were spun at 2000 RPM for 5 min, supernatant was removed and cells were washed with 500 μL 0.1% bovine serum albumin (BSA) in PBS. Cells were re-suspended in 100 μL propidium iodide (PI) staining solution [prepared from 10 μg/mL PI (Sigma #P4864), 100 μg/mL RNase (Sigma #R4642) in PBS] and incubated at 37° C. for 1 hr. Cell populations were then analyzed by flow cytometry on Fluorescence-Activated Cell Sorter (FACS) instrumentation (FACSCalibur; Becton-Dickinson) according to common techniques. The distribution of cells in the various phases of cell cycle was assessed by propidium iodide (PI) staining of DNA. The total intensity of PI was considered to reflect the DNA content of cells."}, "c-Raf": {"target": "T2, c-Raf (Homo sapiens, UniProt P04049)", "T2 construct": "purchased Upstate Biotechnology, Dundee, UK", "T2 sequence (P04049 whole entry)": "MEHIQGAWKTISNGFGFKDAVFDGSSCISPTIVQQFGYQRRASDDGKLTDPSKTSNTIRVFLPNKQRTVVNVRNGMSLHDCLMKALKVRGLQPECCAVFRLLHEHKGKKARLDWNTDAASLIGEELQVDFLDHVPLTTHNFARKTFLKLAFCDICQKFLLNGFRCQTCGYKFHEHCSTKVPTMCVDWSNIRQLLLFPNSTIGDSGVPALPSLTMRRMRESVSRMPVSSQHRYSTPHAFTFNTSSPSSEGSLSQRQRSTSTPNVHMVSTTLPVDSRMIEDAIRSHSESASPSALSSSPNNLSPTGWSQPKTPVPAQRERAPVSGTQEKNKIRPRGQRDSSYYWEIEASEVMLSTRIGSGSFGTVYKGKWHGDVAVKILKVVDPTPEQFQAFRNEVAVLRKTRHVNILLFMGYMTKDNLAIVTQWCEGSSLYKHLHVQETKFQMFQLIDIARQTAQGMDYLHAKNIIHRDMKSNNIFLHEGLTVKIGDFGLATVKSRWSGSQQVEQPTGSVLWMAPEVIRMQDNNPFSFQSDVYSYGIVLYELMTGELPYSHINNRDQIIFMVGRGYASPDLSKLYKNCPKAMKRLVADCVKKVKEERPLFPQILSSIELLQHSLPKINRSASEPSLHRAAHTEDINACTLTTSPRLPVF", "experiment": "Radiometric kinase assay (Upstate panel)", "type": "biochemical"}, "[4]": {"tested_on": "H1299 non-small cell lung cancer xenograft", "experiment": "In vivo efficacy, mouse xenograft", "settings": "H1299 (NSCLC)", "experimental": "(§1) Percent TGI is then calculated with the following equation: […]\n(§2) Time To Endpoint (TTE) was calculated for each individual animal to reach the predetermined study end point where the tumor volume becomes 1200 mm^3 or 10% of body weight or a greater than 20% body weight loss for two sequential measurements. The TTE is calculated and the median value is recorded for the group. Tumor Growth Delay (TGD) is then calculated with the following equation: […]\nH1299 non-small cell lung cancer cells [200 μL of a 5×10^7 cells/mL suspension (1:1 DPBS with cells:Matrigel)] were implanted subcutaneously in the right hind flank. After 10 days, when tumors reached an average volume of approximately 100 mm^3, animals were weighed, randomized by tumor volume (l×w×h×0.52), and assigned to the various study groups before initial dosing."}, "A375 melanoma xenograft": {"tested_on": "A375 melanoma xenograft", "experiment": "In vivo efficacy, mouse xenograft", "experimental": "as §1, §2\nA375 melanoma tumor fragments (1 mm^3) were implanted subcutaneously in the right hind flank of mice. After 9 days, when tumors reached an average volume of approximately 110 mm^3, animals were weighed, randomized by tumor volume (l×w×h×0.52), and assigned to the various study groups before initial dosing."}, "[5]": {"experiment": "Clinical pharmacokinetic evaluation, 3-hour infusion", "type": "in vivo, human", "experimental": "Pharmacokinetic (PK) evaluation was performed on Days 1 and 15."}, "[6]": {"experiment": "Pharmacokinetics, single bolus intravenous injection", "type": "in vivo, CD-1 mice", "settings": "CD-1, mouse, plasma, 5 mg/kg", "excerpt": "Pharmacokinetic parameters were estimated using noncompartmental analysis within WinNonlin v. 4.1. Quantification of Compound 2 was done by HPLC-MS/MS after extraction from plasma with acetonitrile. […] For rising dose experiments measuring exposure for each species, sets containing several animals were singly dosed at a given dose. Results from single-dose experiments are shown in FIG. 10A, Table 43, and in FIG. 10B and Table 44, respectively. […] C0 is initial concentration extrapolated to time zero. AUCINF is area under the plasma-concentration time curve from time zero extrapolated to the infinite time. CL is clearance; Vss is steady state volume of distribution. T1/2 is half-life."}, "[7]": {"experiment": "Protein binding, Rapid Equilibrium Dialysis", "type": "in vitro ADME", "settings": "15 μM", "experimental": "Studies were performed using the Rapid Equilibrium Dialysis (RED) device (Linden Bioscience). Inserts were soaked in water for 10 min×2, then removed and drained immediately prior to use. […] All experiments were performed in duplicate and each chamber was sampled in duplicate. The samples were incubated for 4-6 h at 37° C. in a rotating incubator (100 rpm). Compound 2 was quantified using LC-MS/MS. Data from duplicate samples each sampled twice."}},
  "data": [
    {"compound": "CS(=O)(=O)O.O=C(Nc1cccc(Cl)c1)Nc1ncc(CCNc2ncnc3ccsc23)s1", "note": "[Compound 1, 1-(3-chlorophenyl)-3-{5-[2-(thieno[3,2-d]pyrimidin-4-ylamino)ethyl]thiazo}-urea]", "values": [
      {"measurement": "IC50", "setting": "Flt4", "value": 0.014, "unit": "µM"},
      {"measurement": "EC50", "setting": "HT-29", "value": 12, "unit": "nM"},
      {"measurement": "% TGI (Day 36)", "setting": "[1]; 100 mg/kg, qd × 5, 9 d off × 2", "value": 91.6, "unit": "%"},
      {"measurement": "% TGI (Day 36)", "setting": "[1]; 125 mg/kg, Qw × 3", "value": 79.8, "unit": "%"},
      {"measurement": "% TGI (Day 36)", "setting": "[1]; 150 mg/kg, biw × 3", "value": 95.6, "unit": "%"},
      {"measurement": "cell morphology", "setting": "HCT 116 cells [2]", "value": "formation of large polyploid cells"},
      {"measurement": "DNA content of cells", "setting": "HCT 116 cells [3]", "value": "predominantly 4N and 8N DNA content"},
      {"measurement": "IC50", "setting": "c-Raf", "value": 0.1, "unit": "µM"},
      {"measurement": "% TGI", "setting": "[4]; 42.5 mg/kg biw × 3", "value": 0, "unit": "%"},
      {"measurement": "TGD", "setting": "[4]; 42.5 mg/kg biw × 3", "value": 0, "unit": "days"},
      {"measurement": "% TGI", "setting": "[4]; 85 mg/kg biw × 3", "value": 17.7, "unit": "%"},
      {"measurement": "TGD", "setting": "[4]; 85 mg/kg biw × 3", "value": 0, "unit": "days"},
      {"measurement": "% TGI", "setting": "[4]; 170 mg/kg biw × 3", "value": 69.1, "unit": "%"},
      {"measurement": "TGD", "setting": "[4]; 170 mg/kg biw × 3", "value": 5.7, "unit": "days"},
      {"measurement": "% TGI", "setting": "A375 melanoma xenograft; 42.5 mg/kg biw × 3", "value": 1.2, "unit": "%"},
      {"measurement": "TGD", "setting": "A375 melanoma xenograft; 42.5 mg/kg biw × 3", "value": 0, "unit": "days"},
      {"measurement": "% TGI", "setting": "A375 melanoma xenograft; 85 mg/kg biw × 3", "value": 20.6, "unit": "%"},
      {"measurement": "TGD", "setting": "A375 melanoma xenograft; 85 mg/kg biw × 3", "value": 0, "unit": "days"},
      {"measurement": "% TGI", "setting": "A375 melanoma xenograft; 170 mg/kg biw × 3", "value": 65.4, "unit": "%"},
      {"measurement": "TGD", "setting": "A375 melanoma xenograft; 170 mg/kg biw × 3", "value": 7.4, "unit": "days"}
    ]},
    {"compound": "O=C(Nc1cccc(Cl)c1)Nc1ncc(CCNc2ncnc3ccsc23)s1", "note": "[Compound 2, 1-(3-chlorophenyl)-3-{5-[2-(thieno[3,2-d]pyrimidin-4-ylamino)ethyl]thiazol-2-yl}-urea]", "values": [
      {"measurement": "disposition following repeated administration", "setting": "[5]; first versus third weekly dose", "value": "no change in Compound 2 disposition"},
      {"measurement": "half-life", "setting": "[5]; human, plasma, intravenous, patients, weekly 3-hour infusion, Days 1 and 15, read-out: terminal half-life (converted)", "value": 7, "unit": "h"},
      {"measurement": "clearance", "setting": "[5]; patients", "value": "moderate to low"},
      {"measurement": "AUC(0-inf)", "setting": "[6]", "value": 1800, "unit": "ng·h/mL"},
      {"measurement": "C0", "setting": "[6]", "value": 7100, "unit": "ng/mL"},
      {"measurement": "clearance", "setting": "[6]", "value": 47.6, "unit": "mL/min/kg"},
      {"measurement": "half-life", "setting": "[6]", "value": 1.4, "unit": "h"},
      {"measurement": "Vd", "setting": "[6]; read-out: Vss", "value": 1, "unit": "L/kg"},
      {"measurement": "mean percentage protein-bound", "setting": "[7]; dog plasma", "value": "greater than or equal to 99.9%"},
      {"measurement": "mean percentage protein-bound", "setting": "[7]; human plasma", "value": "greater than or equal to 99.9%"},
      {"measurement": "mean percentage protein-bound", "setting": "[7]; mouse plasma", "value": "greater than or equal to 99.9%"}
    ]}
  ]
}
